Measurements reported in US5977386A, “6-thio-substituted paclitaxels” (Bristol-Myers Squibb Company, priority 1997, dated 1999).
Read-outs that look alike come from different tables or passages of the source.

How the values were obtained:
[1] = tested on: HCT-116 human colon carcinoma cells; assay: MTS cytotoxicity assay (72 h exposure); type: cell-based
Experimental: Cytoxicity was assessed in HCT-116 human colon carcinoma cells by MTS (3-(4,5-dimethylthiazol-2-yl)-5-(3-carboxymethoxyphenyl)-2-(4-sulphenyl)-2H-tetrazolium, inner salt) assay as reported in T. L. Riss, et. al., "Comparison of MTT, XTT, and a novel tetrazolium compound MTS for in vitro proliferation and chemosensitivity assays.," Mol. Biol. Cell 3 (Suppl.):184a, 1992. Cells were plated at 4,000 cell/well in 96 well microtiter plates and 24 hours later drugs were added and serial diluted. The cells were incubated at 37° for 72 hours at which time the tetrazolium dye, MTS at 333 μg/ml (final concentration), in combination with the electron coupling agent phenazine methosulfate at 25 μM (final concentration) was added. A dehydrogenase enzyme in live cells reduces the MTS to a form that absorbs light at […] which can be quantitated spectrophotometrically. The greater the absorbance the greater the number of live cells. The results are expressed as an IC50, which is the drug concentration required to inhibit cell proliferation (i.e. absorbance at 450 nm) to 50% of that of untreated control cells. The IC50 values for compounds evaluated in this assay are evaluated in Table I.
^1 Cytotoxicity was determined after a 72 h exposure by MTS assay.

M109 lung carcinoma = assay: Mice M109 Model (In-Vivo), ip M109 lung carcinoma, median survival; set-up: species or system mouse; conditions: ip M109, Balb/c×DBA/2 F1 mice, ip injections days 5 and 8 post-implant, at optimal dose
Experimental: Balb/c×DBA/2 F1 hybrid mice were implanted intraperitoneally, as described by William Rose in Evaluation of Madison 109 Lung Carcinoma as a Model for Screening Antitumor Drugs, Cancer Treatment Reports, 65, No. 3-4 (1981), with 0.5 mL of a 2% (w/v) brei of M109 lung carcinoma.
Mice were treated with compounds under study by receiving intraperitoneal injections of various doses on days 5 and 8 post-implant. Mice were followed daily for survival until approximately 75 days post-tumor implant. One group of mice per experiment remained untreated and served as the control group.
Median survival times of compound-treated (T) mice were compared to the median survival time of the control (C) mice. The ratio of the two values for each compound-treated group of mice was multiplied by 100 and expressed as a percentage (i.e. % T/C) in the following Table II for representative compounds.
(§1) ^a Optimal dose (mg/kg/inj) if active, otherwise, maximal tolerated
(§2) dose (MTD) or highest dose tested.

M5076 murine sarcoma = assay: sc M5076 murine sarcoma model, tumor growth delay; type: in vivo; conditions: sc M5076, iv on days 1, 3, 5, 7, and 9 post-implant, at optimal dose
Experimental: M5076: Taxane derivatives were tested in the M5076 murine sarcoma model using the general materials and methods described by Rose, W. C. in Anticancer Research 6: 557-562, 1986, for subcutaneous M5076 implants, with the following modifications: treatments were administered intravenously on Days 1, 3, 5, 7, and 9 post-tumor implant using eight mice per treatment and untreated control group. Activity was determined based on an increase in lifespan (as described in the preceding reference) of […], and, in particular, on a delay in tumor growth equivalent to at least 1 gross log cell kill (LCK). The latter was calculated as described in Rose, W. C. and Basler, G. A. in In Vivo 4: 391-396, 1990.
as §1, §2

[2] = Homo sapiens, HCT-116, 72 h, read-out: Cytotoxicity Assay IC50 against HCT 116 Human colon tumor cell line
[3] = Homo sapiens, HCT-116, read-out: Cytotoxicity Assay IC50 against HCT 116 Human colon tumor cell line

Row | SMILES | IC50 [1, 2] [nM] | Maximum % T/C (ratio of median survival times treated/control x 100) (M109 lung carcinoma) [%] | IC50 [1, 3] [nM] | Maximum T-C in LCK (gross log cell kill) (M5076 murine sarcoma) [LCK] | IC50 ([1]; 4320 min, read-out: Cytotoxicity Assay IC50 against HCT 116 Human colon tumor cell line) [nM]
1 | CC(=O)CS[C@@H]1C[C@@]2(C)C(=O)[C@H](OC(C)=O)C3=C(C)[C@@H](OC(=O)[C@H](O)[C@@H](NC(=O)c4ccccc4)c4ccccc4)C[C@@](O)([C@@H](OC(=O)c4ccccc4)[C@@H]2[C@]2(OC(C)=O)CO[C@H]12)C3(C)C [Compound 34, 6-b-thiomethyl methyl keto-7-deoxytaclitaxel] | 1.2 | 168 | – | – | –
2 | CC(=O)O[C@H]1C(=O)[C@]2(C)C[C@@H](Sc3ccccc3)[C@H]3OC[C@@]3(OC(C)=O)[C@H]2[C@H](OC(=O)c2ccccc2)[C@]2(O)C[C@H](OC(=O)[C@H](O)[C@@H](NC(=O)c3ccccc3)c3ccccc3)C(C)=C1C2(C)C [Compound 52, 6b-thiophenyl-7-deoxy-paclitaxel] | 0.58 | 114 | – | – | –
3 | CC(=O)O[C@H]1C(=O)[C@]2(C)C[C@@H](S(C)(=O)=O)[C@H]3OC[C@@]3(OC(C)=O)[C@H]2[C@H](OC(=O)c2ccccc2)[C@]2(O)C[C@H](OC(=O)[C@H](O)[C@@H](NC(=O)c3ccccc3)c3ccccc3)C(C)=C1C2(C)C [Compound 21, 7-deoxy6β-methyl sulfone-paclitaxel] | – | 147 | > 109 | 0 | –
4 | CC(=O)O[C@H]1C(=O)[C@]2(C)C[C@@H](Sc3cccs3)[C@H]3OC[C@@]3(OC(C)=O)[C@H]2[C@H](OC(=O)c2ccccc2)[C@]2(O)C[C@H](OC(=O)[C@H](O)[C@@H](NC(=O)c3ccccc3)c3ccccc3)C(C)=C1C2(C)C [Compound 54, 6-b-thio-(2-thienyl)-7-deoxypaclitaxel] | 1.1 | 148 | – | – | –
5 | CC(=O)O[C@H]1C(=O)[C@]2(C)C[C@@H]([S+](C)[O-])[C@H]3OC[C@@]3(OC(C)=O)[C@H]2[C@H](OC(=O)c2ccccc2)[C@]2(O)C[C@H](OC(=O)[C@H](O)[C@@H](NC(=O)c3ccccc3)c3ccccc3)C(C)=C1C2(C)C (single isomer, unassigned) [Compound 19, 7-deoxy-6β-methyl sulfoxide-paclitaxel] | – | 169 | – | 0.4 | 50.9
6 | COC(=O)CS[C@@H]1C[C@@]2(C)C(=O)[C@H](OC(C)=O)C3=C(C)[C@@H](OC(=O)[C@H](O)[C@@H](NC(=O)c4ccccc4)c4ccccc4)C[C@@](O)([C@@H](OC(=O)c4ccccc4)[C@@H]2[C@]2(OC(C)=O)CO[C@H]12)C3(C)C [Compound 40, 6b-thioacetyl methyl ester-7-deoxypaclitaxel] | 2.5 | 103 | – | – | –
7 | CC(=O)O[C@H]1C(=O)[C@]2(C)C[C@@H](SCC(=O)O)[C@H]3OC[C@@]3(OC(C)=O)[C@H]2[C@H](OC(=O)c2ccccc2)[C@]2(O)C[C@H](OC(=O)[C@H](O)[C@@H](NC(=O)c3ccccc3)c3ccccc3)C(C)=C1C2(C)C [Compound 55] | – | 107 | > 108 | – | –
8 | CC(=O)O[C@H]1C(=O)[C@]2(C)C[C@@H](SC#N)[C@H]3OC[C@@]3(OC(C)=O)[C@H]2[C@H](OC(=O)c2ccccc2)[C@]2(O)C[C@H](OC(=O)[C@H](O)[C@@H](NC(=O)c3ccccc3)c3ccccc3)C(C)=C1C2(C)C [Compound 17, 7-deoxy-6β-thiocyanato-paclitaxel] | 3.8 | 194 | – | 0.7 | –
9 | C=CCOC(=O)CS[C@@H]1C[C@@]2(C)C(=O)[C@H](OC(C)=O)C3=C(C)[C@@H](OC(=O)[C@H](O)[C@@H](NC(=O)c4ccccc4)c4ccccc4)C[C@@](O)([C@@H](OC(=O)c4ccccc4)[C@@H]2[C@]2(OC(C)=O)CO[C@H]12)C3(C)C [Compound 42, 7-deoxy-6b-allyl thioacetatepaclitaxel] | 9 | 106 | – | – | –
